# Molecular target: T1, P2X7 receptor (Homo sapiens, UniProt Q99572)
# T1 construct: host or cells: THP-1 cells differentiated with LPS and IFN-γ
# T1 sequence (Q99572 1-595): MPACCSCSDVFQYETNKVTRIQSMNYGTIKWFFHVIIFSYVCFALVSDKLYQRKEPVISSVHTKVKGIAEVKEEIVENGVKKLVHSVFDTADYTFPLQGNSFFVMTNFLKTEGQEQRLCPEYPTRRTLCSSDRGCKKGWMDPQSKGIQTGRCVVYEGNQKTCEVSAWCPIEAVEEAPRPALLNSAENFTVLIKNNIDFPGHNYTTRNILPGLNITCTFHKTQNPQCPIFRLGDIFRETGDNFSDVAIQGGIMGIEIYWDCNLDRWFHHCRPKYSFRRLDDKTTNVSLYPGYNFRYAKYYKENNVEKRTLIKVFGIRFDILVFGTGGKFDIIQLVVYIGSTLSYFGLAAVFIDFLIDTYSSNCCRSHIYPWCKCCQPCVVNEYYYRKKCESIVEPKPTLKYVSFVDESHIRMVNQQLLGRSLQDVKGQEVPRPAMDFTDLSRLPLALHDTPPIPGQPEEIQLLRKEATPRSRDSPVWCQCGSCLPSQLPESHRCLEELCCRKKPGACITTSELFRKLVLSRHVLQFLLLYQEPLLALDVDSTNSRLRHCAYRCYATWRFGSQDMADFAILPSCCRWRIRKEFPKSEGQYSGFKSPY
# Test: IL-1β release assay in differentiated THP-1 cells stimulated with BzATP (Example 9); % inhibition and IC50
# Assay type: cell-based
# Settings: THP-1 cells differentiated with LPS and IFN-γ, 30 min pretreatment, BzATP 250 uM, IL-1β by ELISA
# Procedure: The cells are then pretreated for 30 minutes with the compound of interest at the appropriate concentration in RPMI media containing 100 IU/mL penicillin, 100 ug/mL streptomycin. […] 30 uL of cell supernatant is then collected and IL-1β levels determined via ELISA (R&D systems Cat. # HSLB50) according to manufacturer's recommendations using the Tecan Safire plate reader. Background adjusted IL-1β levels of drug treated and non-treated cells are used to calculate the percent inhibition.
# The compounds set forth in Table 1 were tested for activity in a cellular model as described herein.
row,IC50 [nM],SMILES
1,> 1000,O=C(Nc1cccc2c(=O)n(CCO)ccc12)c1ccccc1 [Compound 1]
2,> 1000,COc1ccc(CC(=O)Nc2cccc3c(=O)n(CCO)ccc23)cc1 [Compound 2]
3,272,O=C(CCc1ccccc1)Nc1cccc2c(=O)n(CCO)ccc12 [Compound 3]
4,317,O=C(Cc1ccc(Cl)cc1)Nc1cccc2c(=O)n(CCO)ccc12 [Compound 4]
5,> 1000,COc1ccc(C(=O)Nc2cccc3c(=O)n(C(CO)CO)ccc23)c(OC)c1 [Compound 5]
6,311,O=C(Nc1cccc2c(=O)n(CCO)ccc12)c1ccc(C(F)(F)F)cc1C(F)(F)F [Compound 6]
7,289,O=C(Cc1ccc(C(F)(F)F)cc1)Nc1cccc2c(=O)n(CCO)ccc12 [Compound 7]
8,30.3,O=C(Cc1ccc(Cl)c(Cl)c1)Nc1cccc2c(=O)n(CCO)ccc12 [Compound 8]
9,> 1000,O=C(CCc1cc(C(F)(F)F)cc(C(F)(F)F)c1)Nc1cccc2c(=O)n(CCO)ccc12 [Compound 61]
10,22.2,O=C(CCc1cc(C(F)(F)F)ccc1C(F)(F)F)Nc1cccc2c(=O)n(CCO)ccc12 [Compound 62]
11,> 1000,O=C(Cc1ccc2c(c1)OCCO2)Nc1cccc2c(=O)n(CCO)ccc12 [Compound 63]
12,113,O=C(Cc1cc(C(F)(F)F)cc(C(F)(F)F)c1)Nc1cccc2c(=O)n(CCO)ccc12 [Compound 64]
13,110,COc1ccc(CC(=O)Nc2cccc3c(=O)n(CCO)ccc23)cc1Br [Compound 66]
14,> 1000,O=C(Cc1cc(C(F)(F)F)ccc1Cl)Nc1cccc2c(=O)n(CCO)ccc12 [Compound 67]
15,720,O=C(Cc1cc(Cl)ccc1C(F)(F)F)Nc1cccc2c(=O)n(CCO)ccc12 [Compound 68]
16,10.8,O=C(Cc1ccc(Cl)cc1Cl)Nc1cccc2c(=O)n(CCO)ccc12 [Compound 69]
17,406,O=C(Cc1cc(C(F)(F)F)ccc1C(F)(F)F)Nc1cccc2c(=O)n(CCO)ccc12 [Compound 70]
18,> 1000,CS(=O)(=O)c1ccc(CCC(=O)Nc2cccc3c(=O)n(CCO)ccc23)cc1 [Compound 71]
19,> 1000,CS(=O)(=O)c1ccc(CC(=O)Nc2cccc3c(=O)n(CCO)ccc23)cc1 [Compound 72]

row,IC50 [nM],SMILES
1,532,O=C(Cc1ccc(F)cc1)Nc1cccc2c(=O)n(CCO)ccc12 [Compound 73]
2,> 1000,CCC(C(=O)Nc1cccc2c(=O)n(CCO)ccc12)c1ccccc1 (stereo not drawn) [Compound 74]
3,> 1000,COc1cccc(CC(=O)Nc2cccc3c(=O)n(CCO)ccc23)c1 [Compound 75]
4,> 1000,O=C(Cc1ccccc1)Nc1cccc2c(=O)n(CCO)ccc12 [Compound 76]
5,> 1000,COc1ccc(OC)c(CC(=O)Nc2cccc3c(=O)n(CCO)ccc23)c1 [Compound 77]
6,> 1000,CC(C)C(C(=O)Nc1cccc2c(=O)n(CCO)ccc12)c1ccc(Cl)cc1 (stereo not drawn) [Compound 78]
7,27.5,O=C(Cc1ccc(Cl)c(Cl)c1)Nc1cccc2c(=O)n(C(CO)CO)ccc12 [Compound 80]
8,27.8,"O=C(Cc1ccc(Cl)c(C(F)(F)F)c1)Nc1cccc2c(=O)n(C(CO)CO)ccc12 [Compound 81, 2-(4-Chloro-3-trifluoromethyl-phenyl)-N-[2-(2-hydroxy-1-hydroxymethyl-ethyl)-1-oxo-1,2-dihydro-isoquinolin-5-yl]-acetamide]"
9,228,O=C(Cc1ccc(Cl)cc1Cl)Nc1cccc2c(=O)n(C(CO)CO)ccc12 [Compound 82]
10,212,O=C(Cc1ccc(Cl)cc1C(F)(F)F)Nc1cccc2c(=O)n(C(CO)CO)ccc12 [Compound 228]
11,187,O=C(Cc1ccc(Cl)cc1C(F)(F)F)Nc1cccc2c(=O)n(CCO)ccc12 [Compound 229]
12,161,O=C(Cc1ccc(C(F)(F)F)cc1C(F)(F)F)Nc1cccc2c(=O)n(CCO)ccc12 [Compound 230]
13,374,CC(C(=O)Nc1cccc2c(=O)n(C(CO)CO)ccc12)c1ccc(Cl)cc1 (stereo not drawn) [Compound 231]
14,10.7,"O=C(Cc1ccc(Cl)c(C(F)(F)F)c1)Nc1cccc2c(=O)n(C[C@@H]3CCCN3)ccc12 [Compound 232, 2-(4-Chloro-3-trifluoromethyl-phenyl)-N-(1-oxo-2-(S)-1-pyrrolidin-2-ylmethyl-1,2-dihydro-isoquinolin-5-yl)-acetamide]"
15,391,O=C(Cc1ccc(C(F)(F)F)cc1C(F)(F)F)Nc1cccc2c(=O)n(C(CO)CO)ccc12 [Compound 233]
16,144,CNCCn1ccc2c(NC(=O)Cc3ccc(Cl)c(Cl)c3)cccc2c1=O [Compound 234]
17,70.6,"CNCCn1ccc2c(NC(=O)Cc3ccc(Cl)c(C(F)(F)F)c3)cccc2c1=O [Compound 235, 2-(4-Chloro-3-trifluoromethyl-phenyl)-N-[2-(2-methylamino-ethyl)-1-oxo-1,2-dihydro-isoquinolin-5-yl]-acetamide]"
18,46.6,"C[C@@H](C(N)=O)n1ccc2c(NC(=O)Cc3ccc(Cl)c(Cl)c3)cccc2c1=O [Compound 236, (S)-2-{5-[2-(3,4-Dichloro-phenyl)-acetylamino]-1-oxo-1H-isoquinolin-2-yl}-propionamide]"
19,6.27,"C[C@@H](C(N)=O)n1ccc2c(NC(=O)Cc3ccc(Cl)cc3C(F)(F)F)cccc2c1=O [Compound 237, (S)-2-{5-[2-(4-Chloro-2-trifluoromethyl-phenyl)-acetylamino]-1-oxo-1H-isoquinolin-2-yl}-propionamide]"

row,IC50 [nM],SMILES
1,1.26,"C[C@H](C(N)=O)n1ccc2c(NC(=O)Cc3ccc(Cl)c(C(F)(F)F)c3)cccc2c1=O [Compound 238, (R)-2-{5-[2-(4-Chloro-3-trifluoromethyl-phenyl)-acetylamino]-1-oxo-1H-isoquinolin-2-yl}-propionamide]"
2,4.05,C[C@H](C(N)=O)n1ccc2c(NC(=O)Cc3ccc(Cl)c(Cl)c3)cccc2c1=O [Compound 239]
3,11.8,CC(C(=O)Nc1cccc2c(=O)n([C@@H](C)C(N)=O)ccc12)c1ccc(Cl)cc1 (stereo partly drawn) [Compound 240]
4,23.6,C[C@H](C(N)=O)n1ccc2c(NC(=O)Cc3ccc(Cl)cc3C(F)(F)F)cccc2c1=O [Compound 241]
5,35.8,O=C(Cc1ccc(Cl)c(C(F)(F)F)c1)Nc1cccc2c(=O)n(C[C@H]3CCCN3)ccc12 [Compound 243]
6,46.5,O=C(Cc1ccc(Cl)c(Cl)c1)Nc1cccc2c(=O)n(C[C@H]3CCCN3)ccc12 [Compound 245]
7,113,CC(C(=O)Nc1cccc2c(=O)n(C[C@@H]3CCCN3)ccc12)c1ccc(Cl)cc1 (stereo partly drawn) [Compound 246]
8,18.8,CC(C(=O)Nc1cccc2c(=O)n([C@H](C)C(N)=O)ccc12)c1ccc(Cl)cc1 (stereo partly drawn) [Compound 247]
9,> 1000,O=C(Cc1ccc(Cl)c(Cl)c1)Nc1c(Cl)ccc2c(=O)n(CCO)ccc12 [Compound 248]
10,4.83,"NC(=O)Cn1ccc2c(NC(=O)Cc3ccc(Cl)c(C(F)(F)F)c3)cccc2c1=O [Compound 249, 2-{5-[2-(4-Chloro-3-trifluoromethyl-phenyl)-acetylamino]-1-oxo-1H-isoquinolin-2-yl}-acetamide]"
11,15.1,"NC(=O)[C@H](CO)n1ccc2c(NC(=O)Cc3ccc(Cl)c(C(F)(F)F)c3)cccc2c1=O [Compound 250, (S)-2-{5-[2-(4-Chloro-3-trifluoromethyl-phenyl)-acetylamino]-1-oxo-1H-isoquinolin-2-yl}-3-hydroxy-propionamide]"
12,57.3,CC(C(=O)Nc1cccc2c(=O)n(CCO)ccc12)c1ccc(Cl)c(C(F)(F)F)c1 (stereo not drawn) [Compound 251]
13,161,"CC(C(=O)Nc1cccc2c(=O)n([C@H](CO)C(N)=O)ccc12)c1ccc(Cl)cc1 (stereo partly drawn) [Compound 252, (R)-2-{5-[2-(4-Chloro-phenyl)-propionylamino]-1-oxo-1H-isoquinolin-2-yl}-3-hydroxy-propionamide]"
14,763,NC(=O)[C@H](CO)n1ccc2c(NC(=O)Cc3ccc(Cl)c(Cl)c3)cccc2c1=O [Compound 253]
15,25.3,CC(C(=O)Nc1cccc2c(=O)n([C@H](C)C(N)=O)ccc12)c1ccc(Cl)c(Cl)c1 (stereo partly drawn) [Compound 254]
16,21.6,C[C@H](C(N)=O)n1ccc2c(NC(=O)Cc3cccc(Cl)c3)cccc2c1=O [Compound 255]
17,34.4,C[C@H](C(N)=O)n1ccc2c(NC(=O)Cc3ccc(Cl)cc3)cccc2c1=O [Compound 256]
18,39,"O=C(Cc1ccc(Cl)c(C(F)(F)F)c1)Nc1cccc2c(=O)n(CC3CCNCC3)ccc12 [Compound 257, 2-(4-Chloro-3-trifluoromethyl-phenyl)-N-(1-oxo-2-piperidin-4-ylmethyl-1,2-dihydro-isoquinolin-5-yl)-acetamide]"
19,9.92,"NCC(CCl)Cn1ccc2c(NC(=O)Cc3ccc(Cl)c(C(F)(F)F)c3)cccc2c1=O (stereo not drawn) [Compound 258, N-[2-(3-Amino-2-chloromethyl-propyl)-1-oxo-1,2-dihydro-isoquinolin-5-yl]-2-(4-chloro-3-trifluoromethyl-phenyl)-acetamide]"
